EC50 and Activity data for 16 compounds are collected here from ChEMBL document CHEMBL1155747, “Cytotoxic diacetylenes from the stony coral Montipora species” (2001).

Holding throughout (format): functional
The test system of assay [1] is A549. The assay is described as follows: Cytotoxicity against human A549 cells. Conditions: read-out: ED50 (the source's name).
Assay [2] relates to SK-OV-3. The assay is described as follows: Cytotoxicity against human SKOV3 cells. The note with it: read-out: ED50 (the source's name).
Assay [3] deals with SK-MEL-2. Put plainly: Cytotoxicity against human SK-MEL-2 cells. Conditions: read-out: ED50 (the source's name).
The subject of assay [4] is XF498. The assay is described as follows: Cytotoxicity against human XF498 cells. The note with it: read-out: ED50 (the source's name).
Assay [5] deals with HCT-15. The assay is described as follows: Cytotoxicity against human HCT15 cells. The note with it: read-out: ED50 (the source's name).
Assay [6] has as its system HCT-116. Put plainly: Inhibition of cell cycle in human HCT116 cells assessed as increase in apoptotic fraction at 100 ug/mL after 24 hrs by flow cytometry. More on the design: scale not given: the % may be the effect or the level left.

Values after ≈ are worked out from the molar mass of the structure shown.

On to `C=CCCCCCCCC#CC#CCOCC(=O)[O-].[Na+]`, for which the EC50 in assay [1] worked out at 6.26 µg/mL; in assay [2], 4.88 µg/mL; in assay [3], 4.68 µg/mL; in assay [4] it was 4.96 µg/mL; in assay [5] it was 4.47 µg/mL.
The matching figures for `CCCCCCCC#CC#CCO`: 5.48 µg/mL (≈ 30.7 µM), 4.63 µg/mL (≈ 26 µM), 4.45 µg/mL (≈ 25 µM), 5.59 µg/mL (≈ 31.4 µM) and 5.9 µg/mL (≈ 33.1 µM).
The matching figures for `C=CCCCCCC#CC#C/C=C\C(C)=O`: more than 30 µg/mL, 5.23 µg/mL (≈ 24.4 µM), 4.61 µg/mL (≈ 21.5 µM), 29.2 µg/mL (≈ 136 µM) and 11.3 µg/mL (≈ 52.7 µM).
The corresponding values for `C=CCCCCCCCC#CC#CCO` are 3.9 µg/mL (≈ 19.1 µM), 3.23 µg/mL (≈ 15.8 µM), 3.94 µg/mL (≈ 19.3 µM), 5.26 µg/mL (≈ 25.7 µM) and 3.32 µg/mL (≈ 16.2 µM).
Turning to `C=CCCCCCC#CC#C/C=C/C(C)=O`, the EC50 in assay [1] amounted to 6.39 µg/mL (≈ 29.8 µM); in assay [2], 3.52 µg/mL (≈ 16.4 µM); in assay [3] it was 4.21 µg/mL (≈ 19.6 µM); in assay [4], 5.5 µg/mL (≈ 25.7 µM); in assay [5], 4.56 µg/mL (≈ 21.3 µM).
The corresponding values for `C=CCCCCCC#CC#CC(O)CC(C)=O` (racemic) are 4.97 µg/mL (≈ 21.4 µM), 3.85 µg/mL (≈ 16.6 µM), 3.74 µg/mL (≈ 16.1 µM), 3.87 µg/mL (≈ 16.7 µM) and 3.42 µg/mL (≈ 14.7 µM).
The matching figures for `CCCCCCCC#CC#CC(O)CC(C)=O` (racemic) [MONTIPORYNE I]: 4.17 µg/mL (≈ 17.8 µM), 1.81 µg/mL (≈ 7.72 µM), 1.4 µg/mL (≈ 5.97 µM), 3.7 µg/mL (≈ 15.8 µM) and 3.73 µg/mL (≈ 15.9 µM).
The corresponding values for `C=CCCCCCCCC#CC#CC(O)CC(C)=O` (racemic) [MONTIPORYNE K] are 4.91 µg/mL (≈ 18.9 µM), 3.34 µg/mL (≈ 12.8 µM), 3.52 µg/mL (≈ 13.5 µM), 4.45 µg/mL (≈ 17.1 µM) and 4.18 µg/mL (≈ 16.1 µM).
Consider `COc1cccc2c1C(=O)c1c(O)c3c(c(O)c1C2=O)C[C@@](O)(C(=O)CO)C[C@@H]3O[C@H]1C[C@H](N)[C@H](O)[C@H](C)O1` [DOXORUBICIN], for which the EC50 in assay [1] came out at 0.02 µg/mL (≈ 0.0368 µM); in assay [2], 0.13 µg/mL (≈ 0.239 µM); in assay [3], 0.03 µg/mL (≈ 0.0552 µM); in assay [4], 0.08 µg/mL (≈ 0.147 µM); in assay [5], 0.04 µg/mL (≈ 0.0736 µM).
The matching figures for `CCCCCCCC#CC#CCOCC(=O)OC` [METHYLMONTIPORATE A]: more than 30 µg/mL, 20.5 µg/mL (≈ 82 µM), more than 30 µg/mL, more than 30 µg/mL and 25.6 µg/mL (≈ 102 µM).
The corresponding values for `C=CCCCCCCCC#CC#CCOCC(=O)OC` [METHYLMONTIPORATE B] are more than 30 µg/mL, more than 30 µg/mL, more than 30 µg/mL, more than 30 µg/mL and more than 30 µg/mL.
The corresponding values for `CCCCCCCC#CC#CCOCC(=O)[O-].[Na+]` [MONTIPORIC ACID A SODIUM SALT] are 6.31 µg/mL, 7.5 µg/mL, 7.97 µg/mL, 7.72 µg/mL and 8.3 µg/mL.
`C=CCCCCCC#CC#CCOCC(=O)[O-].[Na+]` [MONTIPORIC AICD C]: the EC50 in assay [1], in assay [2], in assay [3], in assay [4] and in assay [5] was more than 30 µg/mL in each case.
With `CCCCCCCC#CC#C/C=C/C(C)=O` [MONTIPORYNE A], the Activity in assay [6] was 19%.
With `C=CCCCCCC#CC#CCO` [MONTIPORYNE G], the EC50 in assay [1] was determined as 13.8 µg/mL (≈ 78.2 µM); in assay [2], 9.79 µg/mL (≈ 55.5 µM); in assay [3], 9.56 µg/mL (≈ 54.2 µM); in assay [4], 10.8 µg/mL (≈ 61.2 µM); in assay [5] it was 12.9 µg/mL (≈ 73.4 µM).
The corresponding values for `C=CCCCCCC#CC#CCOCCO` [MONTIPORYNE H] are 22.7 µg/mL (≈ 103 µM), 17.9 µg/mL (≈ 81.4 µM), 25.1 µg/mL (≈ 114 µM), 16.9 µg/mL (≈ 76.6 µM) and 24.1 µg/mL (≈ 109 µM).
